Consider 44 molecules from ChEMBL document CHEMBL4138299, “Discovery of 3,3'-Spiro[Azetidine]-2-oxo-indoline Derivatives as Fusion Inhibitors for Treatment of RSV Infection” (ACS Med Chem Lett, 2018).

Structures are written as SMILES. Some results are limits rather than exact numbers.

For orientation: CC50 means the concentration giving 50% cytotoxicity. Lower therefore signals harm at low concentration. By AUC(0-inf) is commonly meant total exposure, with the tail of the curve extrapolated. For orientation: half-life means the time in which the quantity being followed falls by half. A word on the Tmax: it is the time from dosing to the highest level. Usually Cmax stands for the maximum level reached in the sampled fluid or tissue. A word on the clearance: it is a measure of how efficiently the substance is removed, as volume per time. What is called Vd is a proportionality between amount in the body and measured concentration, not a real space. One may read the bioavailability as dose-corrected exposure relative to a reference, in per cent.

A short description of data set [1]: Cytotoxicity against human Hep2 cells after 5 days by CCK8 assay. Conditions: HEp-2 cells. For orientation: Formazan colour is commonly taken as a measure of viable cells.
The nature of data set [2]: in vivo. Conditions: Balb/c, mouse, po, 10 mg/kg.
Description: AUC (0 to infinity) in Balb/c mouse at 10 mg/kg, po administered as single dose via gavage by LC-MS/MS analysis
The nature of data set [3]: Half life in Balb/c mouse at 1 mg/kg, iv administered as single bolus dose by LC-MS/MS analysis. The following applies: in vivo.
In data set [4] the test system is Human orthopneumovirus. Kind of data set: Antiviral activity against human respiratory syncytial virus A2 infected in Balb/c mouse assessed as reduction in lung viral load at 50 mg/kg, po administered once daily pretreated for 1 hr on day 0 followed by viral infection and subsequent compound dosing for 3 days measured after 1 day post last dose by plaque assay. The format is functional.

Data set [5] is described as follows: in vivo. The following applies: Balb/c, mouse, po, 10 mg/kg. The source holds these as a separate data set.
Description: Tmax in Balb/c mouse at 10 mg/kg, po administered as single dose via gavage by LC-MS/MS analysis
Data set [6] is described as follows: in vivo. Conditions: Balb/c, mouse, po, 10 mg/kg. The source holds these as a separate data set.
Description: Cmax in Balb/c mouse at 10 mg/kg, po administered as single dose via gavage by LC-MS/MS analysis
The subject of data set [7] is Human orthopneumovirus. The data set can be described thus: Antiviral activity against human respiratory syncytial virus A2 infected in Balb/c mouse assessed as reduction in lung viral load at 5 mg/kg, po administered once daily pretreated for 1 hr on day 0 followed by viral infection and subsequent compound dosing for 3 days measured after 1 day post last dose by plaque assay. The format is functional.

Data set [8] can be described thus: Clearance in Balb/c mouse at 1 mg/kg, iv administered as single bolus dose by LC-MS/MS analysis. Conditions: in vivo.
Data set [9] deals with Human orthopneumovirus. The data set can be described thus: Antiviral activity against human respiratory syncytial virus A2 infected in po dosed Balb/c mouse assessed as reduction in lung viral load administered once daily pretreated for 1 hr on day 0 followed by viral infection and subsequent compound dosing for 3 days measured after 1 day post last dose by plaque assay. The data set is classed as functional, organism-based.

The nature of data set [10]: Volume of distribution in Balb/c mouse at 1 mg/kg, iv administered as single bolus dose by LC-MS/MS analysis. The following applies: in vivo.
Data set [11] in a line: in vivo. The following applies: Balb/c, mouse, po, 10 mg/kg. The source holds these as a separate data set.
Description: Oral bioavailability in Balb/c mouse at 10 mg/kg administered as single dose via gavage by LC-MS/MS analysis
Data set [12] in a line: in vivo. Conditions: Balb/c, mouse, iv, 1 mg/kg.
Description: AUC (0 to infinity) in Balb/c mouse at 1 mg/kg, iv administered as single bolus dose by LC-MS/MS analysis
Data set [13] has as its system Human orthopneumovirus. The data set can be described thus: Antiviral activity against human respiratory syncytial virus A2 infected in Balb/c mouse assessed as reduction in lung viral load at 15 mg/kg, po administered once daily pretreated for 1 hr on day 0 followed by viral infection and subsequent compound dosing for 3 days measured after 1 day post last dose by plaque assay. The data set is classed as functional.

The molecule `OCCCCn1c(Cn2ccc3ccncc32)nc2ccccc21` displayed a CC50 at 120 h in [1] above 100 µM.

In the case of `O=C1N(Cc2nc3ccccc3n2CCCCO)c2cc(F)ccc2C12CC2`, in data set [1], the CC50 at 120 h is above 100 µM.

The molecule `CC1CC(=O)N(Cc2nc3ccccc3n2CCCCO)c2ccccc2N1` (stereo unspecified) displayed a CC50 at 120 h in data set [1] above 100 µM.

For the molecule `CC1(C)C(=O)N(Cc2nc3ccccc3n2CCCCO)c2ccccc21`, the CC50 at 120 h in data set [1] was above 100 µM.

In turn, `O=C1N(Cc2nc3cc(Br)ccc3n2CCCCO)c2ccccc2C12CCOCC2` displayed a CC50 at 120 h in data set [1] above 100 µM.

Turning to `Cc1c2c(nn1Cc1nc3ccccc3n1CCCCO)CCCC2`, the CC50 at 120 h in data set [1] is above 100 µM.

For the molecule `Cc1nc(=O)n(Cc2nc3ccccc3n2CCCCO)c2ccccc12`, in [1], the 50% cytotoxic concentration (CC50) at 120 h was above 100 µM.

The molecule `O=C1N(Cc2nc3cc(Br)ccc3n2CCCCO)c2ccccc2C12CCN(C1COC1)CC2` gave a half-maximal cytotoxic concentration (CC50) at 120 h in [1] above 100 µM.

As for `O=C1N(Cc2nc3ccccc3n2CCCCO)c2cnccc2C12CC2`, the 50% cytotoxic concentration (CC50) at 120 h in [1] was above 100 µM.

For `N#Cc1cn(Cc2nc3ccccc3n2CCCCO)c2ccccc12`, the half-maximal cytotoxic concentration (CC50) at 120 h in data set [1] was above 100 µM.

For the molecule `O=C1N(Cc2nc3cc(Br)ccc3n2CCCCO)c2ccccc2C12CNC2`, the CC50 at 120 h in data set [1] was above 100 µM.

In the case of `CS(=O)(=O)N1CC2(C1)C(=O)N(Cc1nc3cc(Br)ccc3n1CCCCO)c1ccccc12`, in data set [1], the half-maximal cytotoxic concentration (CC50) at 120 h is above 100 µM.

The molecule `CS(=O)(=O)N1CCC2(C1)C(=O)N(Cc1nc3cc(Br)ccc3n1CCCCO)c1ccccc12` (stereo unspecified) showed a CC50 at 120 h in [1] above 100 µM.

Molecule `N#Cc1ccc2c(c1)nc(CN1C(=O)C3(CC3)c3ccccc31)n2CCCCO` returned a CC50 at 120 h in data set [1] above 100 µM.

On to `OCCCCn1c(Cn2c(-c3cscn3)nc3ccccc32)nc2ccccc21`, for which the CC50 at 120 h in data set [1] is above 100 µM.

In turn, `Cc1nn(Cc2nc3ccccc3n2CCCCO)c2c1CCCC2` yielded a CC50 at 120 h in data set [1] above 100 µM.

Consider `O=C1N(Cc2nc3cc(Br)ccc3n2CCCCO)c2ccccc2C12CCOC2` (stereo unspecified), for which the CC50 at 120 h in data set [1] was above 100 µM.

For the molecule `O=c1oc2ccccc2n1Cc1nc2ccccc2n1CCCCO`, in data set [1], the CC50 at 120 h was above 100 µM.

Molecule `Cc1nn(Cc2nc3ccccc3n2CCCCO)c2ccccc12` gave a CC50 at 120 h in [1] above 100 µM.

In data set [1], `CN1CCOC2(C1)C(=O)N(Cc1nc3cc(Br)ccc3n1CCCCO)c1ccccc12` (stereo unspecified) registered a CC50 at 120 h above 100 µM.

Molecule `Cc1cc(=O)n(Cc2nc3ccccc3n2CCCCO)c2ccccc12` returned a CC50 at 120 h in [1] above 100 µM.

In data set [1], `CC(C)OC(=O)N1CCC2(C1)C(=O)N(Cc1nc3cc(Br)ccc3n1CCCCO)c1ccccc12` (stereo unspecified) had a CC50 at 120 h above 100 µM.

For `O=C1N(Cc2nc3cc(Br)ccc3n2CCCCO)c2ccccc2C12CC2`, the 50% cytotoxic concentration (CC50) at 120 h in data set [1] is above 100 µM.

Regarding `OCCCCn1c(Cn2c3c(c4ccccc42)CCNC3)nc2ccccc21`, the CC50 at 120 h in data set [1] is above 100 µM.

`O=C1NC(=O)C2(N1)C(=O)N(Cc1nc3cc(Br)ccc3n1CCCCO)c1ccccc12` (stereo unspecified) had a CC50 at 120 h in [1] above 100 µM.

`O=C1N(Cc2nc3cc(Br)ccc3n2CCCCO)c2ccccc2C12CSC2`: the CC50 at 120 h in data set [1] is above 100 µM.

`Cc1ccc2c(c1)nc(CN1C(=O)C3(CC3)c3ccccc31)n2CCCCO` showed a half-maximal cytotoxic concentration (CC50) at 120 h in data set [1] above 100 µM.

On to `OCCCCn1c(Cn2ncc3ccccc32)nc2ccccc21`, for which, in [1], the CC50 at 120 h was above 100 µM.

`O=C1N(Cc2nc3cc(F)ccc3n2CCCCO)c2ccccc2C12CC2` displayed a CC50 at 120 h in data set [1] above 100 µM.

As for `CN1CCC2(CC1)C(=O)N(Cc1nc3cc(Br)ccc3n1CCCCO)c1ccccc12`, the half-maximal cytotoxic concentration (CC50) at 120 h in [1] was above 100 µM.

In the case of `CN1CC2(C1)C(=O)N(Cc1nc3cc(Br)ccc3n1CCCCO)c1ccccc12`, in [1], the CC50 at 120 h was above 100 µM.

The molecule `O=C1N(Cc2nc3cc(C4CCCCC4)ccc3n2CCCCO)c2ccccc2C12CC2` gave a CC50 at 120 h in data set [1] above 100 µM.

For `O=C1N(Cc2nc3ccccc3n2CCCCO)c2ccccc2C12CC2`, in data set [1], the CC50 at 120 h is above 100 µM.

`O=C1N(Cc2nc3cc(Br)ccc3n2CCCCO)c2ccccc2C12CS(=O)(=O)C2`: the CC50 at 120 h in [1] is above 100 µM.

The molecule `O=C1N(Cc2nc3cc(I)ccc3n2CCCCO)c2ccccc2C12CC2` returned a CC50 at 120 h in data set [1] above 100 µM.

On to `O=C1N(Cc2nc3cc(Cl)ccc3n2CCCCO)c2ccccc2C12CC2`, for which, in data set [1], the CC50 at 120 h was above 100 µM.

As for `CC(C)OC(=O)N1CC2(C1)C(=O)N(Cc1nc3cc(Br)ccc3n1CCCCO)c1ccccc12`, the total exposure AUC(0-inf) in “in vivo [2]” stood at 8.08 µM·h; in the data set “in vivo [12]”, 1.13 µM·h. Further, the half-life in data set [3] was 84 min. Moreover, the “log(activity)” value with Human orthopneumovirus [4] is given as 3.91; in the data set on Human orthopneumovirus [7] it was 1.64; in the data set on Human orthopneumovirus [13], 2.05. The Tmax in the data set “in vivo [5]” is 15 min. Besides, the concentration in “in vivo [6]” peaked (Cmax) at 3.32 µM. The molecule further gave a CC50 at 120 h in data set [1] above 100 µM. Also, the clearance in data set [8] is 28 mL/min/kg. In the data set on Human orthopneumovirus [9], the Activity result was “Dose-dependent effect”. In addition, in [10], the Vd turned out to be 1.6 L/kg. This molecule also had a bioavailability in “in vivo [11]” of 71%.

For the molecule `CC(C)C(=O)N1CCC2(C1)C(=O)N(Cc1nc3cc(Br)ccc3n1CCCCO)c1ccccc12` (stereo unspecified), the CC50 at 120 h in [1] is above 100 µM.

Turning to `NCc1ccc2c(c1)nc(CN1C(=O)C3(CC3)c3ccccc31)n2CCCCO`, the CC50 at 120 h in data set [1] was above 100 µM.

The molecule `CC(C)C(=O)N1CC2(C1)C(=O)N(Cc1nc3cc(Br)ccc3n1CCCCO)c1ccccc12` yielded a cytotoxic concentration (CC50) at 120 h in [1] above 100 µM.

On to `O=C1N(Cc2nc3ccccc3n2CCCCO)CN(c2ccccc2)C12CCNCC2`, for which the CC50 at 120 h in [1] was above 100 µM.

With `OCCCCn1c(Cn2c(C(F)(F)F)nc3ccccc32)nc2ccccc21`, the CC50 at 120 h in data set [1] is above 100 µM.

`OCCCCn1c(Cn2ncc3ccncc32)nc2ccccc21`: in data set [1], the half-maximal cytotoxic concentration (CC50) at 120 h is above 100 µM.

Regarding `O=C1N(Cc2nc3cc(C(F)(F)F)ccc3n2CCCCO)c2ccccc2C12CC2`, the CC50 at 120 h in data set [1] was above 100 µM.
